This is an account of results in patent US20240417411A1, “COMPOUNDS AND METHODS FOR TREATMENT OF VIRAL INFECTIONS” (priority 2023, published 2024).

The conditions of series [1]: 2 μM.
The nature of series [2]: in vitro. The class given is cell-based. To be noted: human. The method, boiled down: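 Uninfected MT4 cells cultured with compound 4–5 days at 37 °C, equilibrated to 25 °C, and viability read by CellTiter-Glo luminescence. Untreated and 2 μM puromycin-treated cells defined 100% and 0% viability; CC50, the concentration reducing viability by 50%, from non-linear regression.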

Another series has as its system RSV-Luc5. Nature of the series: microbe, parasite or virus in culture. The format is cell-based. To be noted: human respiratory syncytial virus, NHBE, 72 h, read-out: RSV NHBE EC50 (nM).
Another series relates to SARS-CoV2-NLuc. Put plainly: microbe, parasite or virus in culture. The class given is cell-based, SARS Coronavirus 2. To be noted: Severe acute respiratory syndrome coronavirus 2, 48 h, read-out: SARS-CoV2 EC50 (nM).
Series [3] in a line: in vitro. The format is in vitro ADME. As to conditions: human, s9, pH 7.4. The method in brief:
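Test compounds at 2 μM final were incubated in a GI S9 reaction mixture, reactions being started by substrate addition. Diluted supernatants were quantified by LC/MS on a Q-Exactive using analyte/internal standard peak area ratios, with 0.1% formic acid water/acetonitrile gradient elution and 5 ppm mass tolerance.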

The subject of series [4] is Caco-2 cells (clone C2BBe1). To be noted: human.
Series [5] can be described thus: in vitro. As to conditions: human, plasma.

Where a name gives a salt, the structure may show the parent alone. Read-outs that look alike come from different tables or passages of the source.

Take `CC(=O)OC[C@H]1O[C@@](C#N)(c2ccc3c(N)ncnn23)[C@@H]2OC(=O)CCCC(=O)O[C@@H]21` [Compound C55, ((7aR,8R,10R,10aR)-10-(4-aminopyrrolo[2,1-f][1,2,4]triazin-7-yl)-10-cyano-2,6-dioxooctahydro-2H-furo[3,4-b][1,4]dioxonin-8-yl)methyl acetate]: the “Human Plasma T1/2” value in series [1] worked out at 3 min. The CC50 in “in vitro [2]” is greater than 50 µM. The EC50 in the series on RSV-Luc5 came to 2070 nM; in the series with SARS-CoV2-NLuc it was 3300 nM.
As to `CN1[C@@H]2CC[C@H]1C[C@@H](OC(=O)OC[C@H]1O[C@@](C#N)(c3ccc4c(N)ncnn34)[C@@H]3OC(=O)CC(C)(C)CC(=O)O[C@@H]31)C2` [Compound C47, ((7aR,8R,10R,10aR)-10-(4-aminopyrrolo[2,1-f][1,2,4]triazin-7-yl)-10-cyano-4,4-dimethyl-2,6-dioxooctahydro-2H-furo[3,4-b][1,4]dioxonin-8-yl)methyl ((1R,3s,5S)-8-methyl-8-azabicyclo[3.2.1]octan-3-yl) carbonate formate], the half-life at 2 μM in the series “in vitro [3]” stood at 99.4 min; in “in vitro [5]”, 60.2 min. In “in vitro [2]”, the half-maximal cytotoxic concentration (CC50) is greater than 50 µM. For the same compound, the “Caco2 A to B” value in series [4] (Caco-2, 2 h) is reported as 0.04. For the same compound, the “Caco2 B to A” value in series [4] (Caco-2, 2 h) amounted to 5.19. Further, the concentration giving a half-maximal response (EC50) in the series with RSV-Luc5 and in the series with SARS-CoV2-NLuc was greater than 50000 nM each time.
`N#C[C@@]1(c2ccc3c(N)ncnn23)O[C@H](COC(=O)OC2CCCC2)[C@H]2OC(=O)CCCC(=O)O[C@H]21` [Compound C20, ((7aR,8R,10R,10aR)-10-(4-aminopyrrolo[2,1-f][1,2,4]triazin-7-yl)-10-cyano-2,6-dioxooctahydro-2H-furo[3,4-b][1,4]dioxonin-8-yl)methyl cyclopentyl carbonate]: the “Human Plasma T1/2” value in series [1] was determined as 3 min. This compound also registered a cytotoxic concentration (CC50) in the series “in vitro [2]” greater than 50 µM. Besides, the EC50 in the series with RSV-Luc5 stood at 27900 nM; with SARS-CoV2-NLuc, 11700 nM.
Regarding `N#CC1(COC(=O)OC[C@H]2O[C@@](C#N)(c3ccc4c(N)ncnn34)[C@@H]3OC(=O)CCCC(=O)O[C@@H]32)CC1` [Compound C24, ((7aR,8R,10R,10aR)-10-(4-aminopyrrolo[2,1-f][1,2,4]triazin-7-yl)-10-cyano-2,6-dioxooctahydro-2H-furo[3,4-b][1,4]dioxonin-8-yl)methyl ((1-cyanocyclopropyl)methyl) carbonate], the “Human Plasma T1/2” value in series [1] was found to be 3 min. In addition, the half-life at 2 μM in the series “in vitro [3]” was found to be 0.565 min. For the same compound, the CC50 in “in vitro [2]” was greater than 50 µM. In addition, the concentration for a half-maximal effect (EC50) was found to be 7760 nM with RSV-Luc5 and 11500 nM with SARS-CoV2-NLuc.
The compound `CC1(C)CC(=O)O[C@H]2[C@@H](OC(=O)C1)[C@](C#N)(c1ccc3c(N)ncnn13)O[C@@H]2COC(=O)OC1CCOCC1` [Compound C33, ((7aR,8R,10R,10aR)-10-(4-aminopyrrolo[2,1-f][1,2,4]triazin-7-yl)-10-cyano-4,4-dimethyl-2,6-dioxooctahydro-2H-furo[3,4-b][1,4]dioxonin-8-yl)methyl (tetrahydro-2H-pyran-4-yl) carbonate] registered a half-life at 2 μM in the series “in vitro [3]” of 29 min. For the same compound, the CC50 in “in vitro [2]” is greater than 50 µM. Besides, in series [4] (Caco-2), the “Caco2 A to B” value was 0.41 and the “Caco2 B to A” value worked out at 3.17. For the same compound, in the series with RSV-Luc5, the 50% effective concentration (EC50) was greater than 50000 nM. The half-life in the series “in vitro [5]” is 609 min. Further, in the series with SARS-CoV2-NLuc, the EC50 was greater than 50000 nM.
For `CC(C)OC(=O)OC[C@H]1O[C@@](C#N)(c2ccc3c(N)ncnn23)[C@@H]2OC(=O)CN(C)CC(=O)O[C@@H]21` [Compound C4, ((7aR,8R,10R,10aR)-10-(4-aminopyrrolo[2,1-f][1,2,4]triazin-7-yl)-10-cyano-4-methyl-2,6-dioxooctahydro-2H-furo[3,4-b][1,4,7]dioxazonin-8-yl)methyl isopropyl carbonate], the half-life at 2 μM in “in vitro [3]” came to 0.694 min; in “in vitro [5]”, 65.6 min. The compound also came in with a CC50 in “in vitro [2]” greater than 50 µM. In series [4] (Caco-2), the “Caco2 A to B” value is 0.023. Further, the “Caco2 B to A” value in series [4] (Caco-2) amounted to 2. For the same compound, the 50% effective concentration (EC50) in the series on RSV-Luc5 is 3120 nM; in the series on SARS-CoV2-NLuc it was 6730 nM.
For `N#C[C@@]1(c2ccc3c(N)ncnn23)O[C@H](COC(=O)OC2CCOCC2)[C@H]2OC(=O)CCCC(=O)O[C@H]21` [Compound C16, ((7aR,8R,10R,10aR)-10-(4-aminopyrrolo[2,1-f][1,2,4]triazin-7-yl)-10-cyano-2,6-dioxooctahydro-2H-furo[3,4-b][1,4]dioxonin-8-yl)methyl (tetrahydro-2H-pyran-4-yl) carbonate], in the series “in vitro [3]”, the half-life at 2 μM was 0.605 min. Moreover, the CC50 in “in vitro [2]” is greater than 50 µM. Also, in series [4] (Caco-2), the “Caco2 A to B” value was 0.68 and the “Caco2 B to A” value came to 5.08. In addition, the EC50 with RSV-Luc5 amounted to 20000 nM. The compound further had a half-life in “in vitro [5]” of 14.1 min. For the same compound, the EC50 in the series on SARS-CoV2-NLuc came out at 14900 nM.
For `CCOC(=O)OC[C@H]1O[C@@](C#N)(c2ccc3c(N)ncnn23)[C@@H]2OC(=O)CC(C)(C)CC(=O)O[C@@H]21` [Compound C14, ((7aR,8R,10R,10aR)-10-(4-aminopyrrolo[2,1-f][1,2,4]triazin-7-yl)-10-cyano-4,4-dimethyl-2,6-dioxooctahydro-2H-furo[3,4-b][1,4]dioxonin-8-yl)methyl ethyl carbonate], the half-life at 2 μM in “in vitro [3]” came out at 4.03 min; in “in vitro [5]”, 27.1 min. In addition, the CC50 in the series “in vitro [2]” is greater than 50 µM. Also, in series [4] (Caco-2), the “Caco2 A to B” value is 4.27. The “Caco2 B to A” value in series [4] (Caco-2) was 8.55. In addition, the concentration for a half-maximal effect (EC50) with RSV-Luc5 and with SARS-CoV2-NLuc was greater than 50000 nM in each case.
With `CCC(=O)OC[C@H]1O[C@@](C#N)(c2ccc3c(N)ncnn23)[C@@H]2OC(=O)CCCC(=O)O[C@@H]21` [Compound C56, ((7aR,8R,10R,10aR)-10-(4-aminopyrrolo[2,1-f][1,2,4]triazin-7-yl)-10-cyano-2,6-dioxooctahydro-2H-furo[3,4-b][1,4]dioxonin-8-yl)methyl propionate], in series [1], the “Human Plasma T1/2” value was 3 min. Also, the 50% cytotoxic concentration (CC50) in “in vitro [2]” was greater than 50 µM. The EC50 in the series with RSV-Luc5 turned out to be 2300 nM; in the series with SARS-CoV2-NLuc, 4580 nM.
As to `CC(C)OC(=O)OC[C@H]1O[C@@](C#N)(c2ccc3c(N)ncnn23)[C@@H]2OC(=O)CCCC(=O)O[C@@H]21` [Compound C2, ((7aR,8R,10R,10aR)-10-(4-aminopyrrolo[2,1-f][1,2,4]triazin-7-yl)-10-cyano-2,6-dioxooctahydro-2H-furo[3,4-b][1,4]dioxonin-8-yl)methyl isopropyl carbonate], the half-life at 2 μM in the series “in vitro [3]” amounted to 0.616 min; in the series “in vitro [5]”, 7.8 min. Further, the CC50 in “in vitro [2]” was greater than 50 µM. Also, the “Caco2 A to B” value in series [4] (Caco-2) turned out to be 1.66. The “Caco2 B to A” value in series [4] (Caco-2) stood at 7.32. Also, the figures for the EC50 with RSV-Luc5 and in the series with SARS-CoV2-NLuc were 3350 nM and 9600 nM, respectively.
`CC(C)OC(=O)OC[C@H]1O[C@@](C#N)(c2ccc3c(N)ncnn23)[C@@H]2OC(=O)OCCC=CCCOC(=O)O[C@@H]21` [Compound C52, ((12aR,13R,15R,15aR)-15-(4-aminopyrrolo[2,1-f][1,2,4]triazin-7-yl)-15-cyano-2,11-dioxo-4,5,8,9,12a,13,15,15a-octahydrofuro[3,4-d][1,3,6,8]tetraoxacyclotetradecin-13-yl)methyl isopropyl carbonate] had a half-life at 2 μM in the series “in vitro [3]” of 0.6 min. In addition, the half-maximal cytotoxic concentration (CC50) in the series “in vitro [2]” was greater than 50 µM. Also, in series [4] (Caco-2), the “Caco2 A to B” value was determined as 6.77 and the “Caco2 B to A” value turned out to be 11.87. Moreover, the half-maximal effective concentration (EC50) in the series with RSV-Luc5 came out at 1600 nM. The half-life in “in vitro [5]” was determined as 1580 min. In addition, the concentration for a half-maximal effect (EC50) with SARS-CoV2-NLuc turned out to be 7100 nM.
As to `CCC(CC)COC(=O)OC[C@H]1O[C@@](C#N)(c2ccc3c(N)ncnn23)[C@@H]2OC(=O)CCCC(=O)O[C@@H]21` [Compound C21, ((7aR,8R,10R,10aR)-10-(4-aminopyrrolo[2,1-f][1,2,4]triazin-7-yl)-10-cyano-2,6-dioxooctahydro-2H-furo[3,4-b][1,4]dioxonin-8-yl)methyl (2-ethylbutyl) carbonate], the “Human Plasma T1/2” value in series [1] was determined as 3 min. Moreover, in the series “in vitro [3]”, the half-life at 2 μM was found to be 0.637 min. Moreover, the cytotoxic concentration (CC50) in “in vitro [2]” was greater than 50 µM. The results for the 50% effective concentration (EC50) with RSV-Luc5 and with SARS-CoV2-NLuc were 6600 nM and 1440 nM, respectively.
As for `CC1(C)CC(=O)O[C@H]2[C@@H](OC(=O)C1)[C@](C#N)(c1ccc3c(N)ncnn13)O[C@@H]2COC(=O)OC1CCOC1` (stereo partly drawn) [Compound C40, ((7aR,8R,10R,10aR)-10-(4-aminopyrrolo[2,1-f][1,2,4]triazin-7-yl)-10-cyano-4,4-dimethyl-2,6-dioxooctahydro-2H-furo[3,4-b][1,4]dioxonin-8-yl)methyl (tetrahydrofuran-3-yl) carbonate], the half-life at 2 μM is 5.83 min in “in vitro [3]” and 72.5 min in the series “in vitro [5]”. Besides, the CC50 in the series “in vitro [2]” was greater than 50 µM. For the same compound, the “Caco2 A to B” value in series [4] (Caco-2) is 0.69. Moreover, in series [4] (Caco-2), the “Caco2 B to A” value is recorded as 5.13. Moreover, the EC50 with RSV-Luc5 and in the series on SARS-CoV2-NLuc was greater than 50000 nM each time.
Regarding `CC(C)OC(=O)OC[C@H]1O[C@@](C#N)(c2ccc3c(N)ncnn23)[C@@H]2OC(=O)OCCCCCCOC(=O)O[C@@H]21` [Compound C53, ((12aR,13R,15R,15aR)-15-(4-aminopyrrolo[2,1-f][1,2,4]triazin-7-yl)-15-cyano-2,11-dioxodecahydrofuro[3,4-d][1,3,6,8]tetraoxacyclotetradecin-13-yl)methyl isopropyl carbonate], the half-life at 2 μM in “in vitro [3]” is 0.691 min; in “in vitro [5]”, 317 min. Moreover, the 50% cytotoxic concentration (CC50) in “in vitro [2]” is greater than 50 µM. Besides, the “Caco2 A to B” value in series [4] (Caco-2) stood at 9.28. In addition, in series [4] (Caco-2), the “Caco2 B to A” value stood at 15.92. Moreover, the results for the half-maximal effective concentration (EC50) with RSV-Luc5 and in the series on SARS-CoV2-NLuc were 1330 nM and 9660 nM, respectively.
